Data reported in ChEMBL document CHEMBL5608182, “Synthesis and evaluation of neuroactive steroids with novel pharmacophore at C-21 let identify a compound with advantageous PK profile and higher EC50 and Emax as PAM on GABAA receptor” (Eur J Med Chem, 2024).

Molecular target: T1, GABA-A receptor; alpha-1/beta-2/gamma-2 (Homo sapiens, UniProt P14867+P18507+P47870)
T1 sequence (P14867 whole entry): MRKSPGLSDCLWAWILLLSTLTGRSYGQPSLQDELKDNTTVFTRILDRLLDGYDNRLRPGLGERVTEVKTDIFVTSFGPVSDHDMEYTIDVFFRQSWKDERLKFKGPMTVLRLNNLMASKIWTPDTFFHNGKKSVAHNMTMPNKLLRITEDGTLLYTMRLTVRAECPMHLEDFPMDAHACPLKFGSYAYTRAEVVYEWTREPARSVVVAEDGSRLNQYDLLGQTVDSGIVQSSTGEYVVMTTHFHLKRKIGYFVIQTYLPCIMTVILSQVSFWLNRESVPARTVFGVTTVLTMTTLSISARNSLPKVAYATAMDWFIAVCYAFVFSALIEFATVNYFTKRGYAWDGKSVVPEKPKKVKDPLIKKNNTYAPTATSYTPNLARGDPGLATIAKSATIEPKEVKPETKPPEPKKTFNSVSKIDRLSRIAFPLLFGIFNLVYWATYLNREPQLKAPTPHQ
T1 sequence (P47870 whole entry): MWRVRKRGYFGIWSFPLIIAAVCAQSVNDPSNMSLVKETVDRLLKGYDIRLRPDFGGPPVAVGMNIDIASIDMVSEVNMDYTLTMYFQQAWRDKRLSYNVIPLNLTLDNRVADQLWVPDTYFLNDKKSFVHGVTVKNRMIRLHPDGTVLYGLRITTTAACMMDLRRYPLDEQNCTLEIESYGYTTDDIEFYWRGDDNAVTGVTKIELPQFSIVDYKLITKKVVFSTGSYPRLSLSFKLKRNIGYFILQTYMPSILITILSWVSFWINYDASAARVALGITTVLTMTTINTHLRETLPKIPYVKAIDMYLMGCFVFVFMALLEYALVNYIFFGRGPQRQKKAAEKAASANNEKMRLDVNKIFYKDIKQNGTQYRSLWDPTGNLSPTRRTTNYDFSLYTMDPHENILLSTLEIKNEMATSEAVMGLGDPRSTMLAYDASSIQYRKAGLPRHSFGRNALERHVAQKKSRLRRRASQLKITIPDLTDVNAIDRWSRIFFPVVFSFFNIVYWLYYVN
T1 sequence (P18507 whole entry): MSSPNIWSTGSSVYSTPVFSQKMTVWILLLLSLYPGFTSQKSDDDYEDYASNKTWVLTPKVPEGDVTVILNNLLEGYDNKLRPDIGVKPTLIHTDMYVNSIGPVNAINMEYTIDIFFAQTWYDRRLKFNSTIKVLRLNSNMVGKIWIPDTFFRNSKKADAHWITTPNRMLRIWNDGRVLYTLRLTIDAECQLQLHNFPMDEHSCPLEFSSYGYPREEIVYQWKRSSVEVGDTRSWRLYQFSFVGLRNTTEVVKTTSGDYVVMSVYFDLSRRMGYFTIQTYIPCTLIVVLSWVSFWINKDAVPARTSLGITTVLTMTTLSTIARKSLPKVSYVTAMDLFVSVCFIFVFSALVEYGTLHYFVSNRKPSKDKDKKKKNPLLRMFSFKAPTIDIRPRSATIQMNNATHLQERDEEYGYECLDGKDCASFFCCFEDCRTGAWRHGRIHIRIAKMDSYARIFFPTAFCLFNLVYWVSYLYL
Test: Positive allosteric modulation of synaptic alpha1beta2gamma2 GABA-A receptor (unknown origin) transfected in LTK cells assessed as potentiation of GABA-induced peak current amplitude at -80 mV holding potential preincubated for 30 secs followed by GABA stimulation for 2 secs by Q-patch assay
Assay type: cell-based
Conditions: not given

| SMILES | EC50 |
| --- | --- |
| C[C@@]1(O)CC[C@H]2[C@H](CC[C@@H]3[C@@H]2CC[C@]2(C)[C@@H](C(=O)Cn4nnn(-c5cccc(F)c5)c4=O)CC[C@@H]32)C1 | 37 nM |
| C[C@@]1(O)CC[C@H]2[C@H](CC[C@@H]3[C@@H]2CC[C@]2(C)[C@@H](C(=O)Cn4cnn(-c5cccc(F)c5)c4=O)CC[C@@H]32)C1 | 56 nM |
| COc1cccc(-n2ncn(CC(=O)[C@H]3CC[C@H]4[C@@H]5CC[C@@H]6C[C@](C)(O)CC[C@@H]6[C@H]5CC[C@]34C)c2=O)c1 | 26 nM |

Test system: not listed separately
Test: Metabolic stability in Sprague-Dawley rat liver microsomes assessed as intrinsic clearance at 1 uM preincubated for 10 mins followed by NADPH addition by LC-MS analysis
Assay type: ADME, Microsome
Conditions: read-out: CLH

| SMILES | CLint scaled at 1 µM |
| --- | --- |
| C[C@@]1(O)CC[C@H]2[C@H](CC[C@@H]3[C@@H]2CC[C@]2(C)[C@@H](C(=O)Cn4nnn(-c5cccc(F)c5)c4=O)CC[C@@H]32)C1 | 105 mL/min/kg |
| C[C@@]1(O)CC[C@H]2[C@H](CC[C@@H]3[C@@H]2CC[C@]2(C)[C@@H](C(=O)Cn4cnn(-c5cccc(F)c5)c4=O)CC[C@@H]32)C1 | 44 mL/min/kg |
| COc1cccc(-n2ncn(CC(=O)[C@H]3CC[C@H]4[C@@H]5CC[C@@H]6C[C@](C)(O)CC[C@@H]6[C@H]5CC[C@]34C)c2=O)c1 | 176 mL/min/kg |

Test system: not listed separately
Test: Metabolic stability in human liver microsomes assessed as intrinsic clearance at 1 uM preincubated for 10 mins followed by NADPH addition by LC-MS analysis
Assay type: ADME, Microsome
Conditions: read-out: CLH

| SMILES | CLint scaled at 1 µM |
| --- | --- |
| C[C@@]1(O)CC[C@H]2[C@H](CC[C@@H]3[C@@H]2CC[C@]2(C)[C@@H](C(=O)Cn4nnn(-c5cccc(F)c5)c4=O)CC[C@@H]32)C1 | 11 mL/min/kg |
| C[C@@]1(O)CC[C@H]2[C@H](CC[C@@H]3[C@@H]2CC[C@]2(C)[C@@H](C(=O)Cn4cnn(-c5cccc(F)c5)c4=O)CC[C@@H]32)C1 | 3.9 mL/min/kg |
| COc1cccc(-n2ncn(CC(=O)[C@H]3CC[C@H]4[C@@H]5CC[C@@H]6C[C@](C)(O)CC[C@@H]6[C@H]5CC[C@]34C)c2=O)c1 | 24 mL/min/kg |

Test system: not listed separately
Test: Metabolic stability in Sprague-Dawley rat liver microsomes assessed as compound remaining at 1 uM preincubated for 10 mins followed by NADPH addition by LC-MS analysis
Assay type: ADME, Microsome
Conditions: read-out: Stability

| SMILES | remaining at 1 µM |
| --- | --- |
| C[C@@]1(O)CC[C@H]2[C@H](CC[C@@H]3[C@@H]2CC[C@]2(C)[C@@H](C(=O)Cn4nnn(-c5cccc(F)c5)c4=O)CC[C@@H]32)C1 | 15.6% |
| C[C@@]1(O)CC[C@H]2[C@H](CC[C@@H]3[C@@H]2CC[C@]2(C)[C@@H](C(=O)Cn4cnn(-c5cccc(F)c5)c4=O)CC[C@@H]32)C1 | 44.5% |
| COc1cccc(-n2ncn(CC(=O)[C@H]3CC[C@H]4[C@@H]5CC[C@@H]6C[C@](C)(O)CC[C@@H]6[C@H]5CC[C@]34C)c2=O)c1 | 14.2% |

Test system: not listed separately
Test: Metabolic stability in human liver microsomes assessed as compound remaining at 1 uM preincubated for 10 mins followed by NADPH addition by LC-MS analysis
Assay type: ADME, Microsome
Conditions: read-out: Stability

| SMILES | remaining at 1 µM |
| --- | --- |
| C[C@@]1(O)CC[C@H]2[C@H](CC[C@@H]3[C@@H]2CC[C@]2(C)[C@@H](C(=O)Cn4nnn(-c5cccc(F)c5)c4=O)CC[C@@H]32)C1 | 70% |
| C[C@@]1(O)CC[C@H]2[C@H](CC[C@@H]3[C@@H]2CC[C@]2(C)[C@@H](C(=O)Cn4cnn(-c5cccc(F)c5)c4=O)CC[C@@H]32)C1 | 89% |
| COc1cccc(-n2ncn(CC(=O)[C@H]3CC[C@H]4[C@@H]5CC[C@@H]6C[C@](C)(O)CC[C@@H]6[C@H]5CC[C@]34C)c2=O)c1 | 43.5% |

Molecular target: GABA-A receptor; anion channel
Test: Inhibition of [35S]TBPS binding to GABA-A receptor in Sprague-Dawley rat brain cortical membrane incubated for 90 mins by liquid scintillation spectrometry
Assay type: cell membranes, Cortex
Conditions: not given

| SMILES | IC50 |
| --- | --- |
| C[C@@]1(O)CC[C@H]2[C@H](CC[C@@H]3[C@@H]2CC[C@]2(C)[C@@H](C(=O)Cn4nnn(-c5cccc(F)c5)c4=O)CC[C@@H]32)C1 | 1 nM |
| C[C@@]1(O)CC[C@H]2[C@H](CC[C@@H]3[C@@H]2CC[C@]2(C)[C@@H](C(=O)Cn4cnn(-c5cccc(F)c5)c4=O)CC[C@@H]32)C1 | 1.2 nM |

Molecular target: GABA-A receptor; alpha-1/beta-2/gamma-2 (Homo sapiens) (UniProt P14867+P47870+P18507)
Test: Positive allosteric modulation of synaptic alpha1beta2gamma2 GABA-A receptor (unknown origin) transfected in LTK cells assessed as potentiation of GABA-induced peak current amplitude by measuring maximal efficacy at 0.01 to 10 uM at -80 mV holding potential preincubated for 30 secs followed by GABA stimulation for 2 secs by Q-patch assay relative to control
Assay type: cell-based
Conditions: filed as positive allosteric modulator, dose 0.01-10 µM, time 32.0 sec

| SMILES | Emax |
| --- | --- |
| C[C@@]1(O)CC[C@H]2[C@H](CC[C@@H]3[C@@H]2CC[C@]2(C)[C@@H](C(=O)Cn4nnn(-c5cccc(F)c5)c4=O)CC[C@@H]32)C1 | 1120% |
| C[C@@]1(O)CC[C@H]2[C@H](CC[C@@H]3[C@@H]2CC[C@]2(C)[C@@H](C(=O)Cn4cnn(-c5cccc(F)c5)c4=O)CC[C@@H]32)C1 | 566% |
| COc1cccc(-n2ncn(CC(=O)[C@H]3CC[C@H]4[C@@H]5CC[C@@H]6C[C@](C)(O)CC[C@@H]6[C@H]5CC[C@]34C)c2=O)c1 | 410% |

Molecular target: Gamma-aminobutyric acid receptor subunit alpha-4/beta3/delta (Homo sapiens, UniProt O14764+P28472+P48169)
Sequence (P28472 whole entry): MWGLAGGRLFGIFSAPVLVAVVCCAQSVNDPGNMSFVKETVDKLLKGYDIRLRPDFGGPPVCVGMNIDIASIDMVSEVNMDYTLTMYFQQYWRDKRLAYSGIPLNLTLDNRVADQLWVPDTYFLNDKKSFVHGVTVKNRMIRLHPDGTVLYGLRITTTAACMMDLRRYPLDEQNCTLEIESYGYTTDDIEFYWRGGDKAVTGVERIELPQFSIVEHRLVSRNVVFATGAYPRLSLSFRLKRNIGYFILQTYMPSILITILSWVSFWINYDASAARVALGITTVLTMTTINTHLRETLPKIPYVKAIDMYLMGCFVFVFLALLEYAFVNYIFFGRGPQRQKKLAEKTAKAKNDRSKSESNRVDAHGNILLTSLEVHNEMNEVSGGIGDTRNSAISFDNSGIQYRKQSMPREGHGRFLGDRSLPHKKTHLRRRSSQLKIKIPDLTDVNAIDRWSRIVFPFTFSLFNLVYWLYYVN
Sequence (P48169 whole entry): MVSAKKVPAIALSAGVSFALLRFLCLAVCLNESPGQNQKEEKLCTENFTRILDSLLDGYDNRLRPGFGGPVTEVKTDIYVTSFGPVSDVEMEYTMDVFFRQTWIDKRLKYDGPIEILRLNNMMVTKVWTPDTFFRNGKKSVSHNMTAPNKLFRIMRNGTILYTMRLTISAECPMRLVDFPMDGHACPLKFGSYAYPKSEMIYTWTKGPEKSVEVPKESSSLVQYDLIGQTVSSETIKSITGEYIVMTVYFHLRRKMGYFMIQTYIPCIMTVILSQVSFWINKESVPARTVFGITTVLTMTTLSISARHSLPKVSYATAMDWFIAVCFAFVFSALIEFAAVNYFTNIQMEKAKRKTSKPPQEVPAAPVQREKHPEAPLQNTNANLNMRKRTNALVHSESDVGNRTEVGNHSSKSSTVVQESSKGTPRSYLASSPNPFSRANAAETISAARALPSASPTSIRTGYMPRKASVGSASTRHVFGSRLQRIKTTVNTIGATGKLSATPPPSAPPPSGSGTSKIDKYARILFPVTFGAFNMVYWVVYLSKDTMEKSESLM
Sequence (O14764 whole entry): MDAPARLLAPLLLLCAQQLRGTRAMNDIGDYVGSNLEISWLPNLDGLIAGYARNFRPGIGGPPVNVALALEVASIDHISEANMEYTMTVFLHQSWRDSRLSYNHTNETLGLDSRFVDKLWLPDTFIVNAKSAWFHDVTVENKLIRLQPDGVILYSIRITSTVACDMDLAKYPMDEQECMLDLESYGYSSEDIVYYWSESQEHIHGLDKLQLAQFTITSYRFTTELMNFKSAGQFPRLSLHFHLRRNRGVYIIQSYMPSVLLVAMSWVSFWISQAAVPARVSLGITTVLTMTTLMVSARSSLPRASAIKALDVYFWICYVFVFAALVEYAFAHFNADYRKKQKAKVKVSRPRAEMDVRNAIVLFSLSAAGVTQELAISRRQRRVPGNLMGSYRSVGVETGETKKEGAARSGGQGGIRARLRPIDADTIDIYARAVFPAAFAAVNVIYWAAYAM
Test: Positive allosteric modulation of extrasynaptic alpha4beta3delta GABA-A receptor (unknown origin) transfected in CHO cells assessed as potentiation of GABA-induced peak current amplitude at -80 mV holding potential preincubated for 30 secs followed by GABA stimulation for 2 secs by manual patch assay
Assay type: cell-based
Conditions: not given

| SMILES | EC50 |
| --- | --- |
| C[C@@]1(O)CC[C@H]2[C@H](CC[C@@H]3[C@@H]2CC[C@]2(C)[C@@H](C(=O)Cn4nnn(-c5cccc(F)c5)c4=O)CC[C@@H]32)C1 | 23 nM |
| C[C@@]1(O)CC[C@H]2[C@H](CC[C@@H]3[C@@H]2CC[C@]2(C)[C@@H](C(=O)Cn4cnn(-c5cccc(F)c5)c4=O)CC[C@@H]32)C1 | 10 nM |
| COc1cccc(-n2ncn(CC(=O)[C@H]3CC[C@H]4[C@@H]5CC[C@@H]6C[C@](C)(O)CC[C@@H]6[C@H]5CC[C@]34C)c2=O)c1 | 21 nM |

Molecular target: Gamma-aminobutyric acid receptor subunit alpha-4/beta3/delta (Homo sapiens) (UniProt P28472+P48169+O14764)
Test: Positive allosteric modulation of extrasynaptic alpha4beta3delta GABA-A receptor (unknown origin) transfected in CHO cells assessed as potentiation of GABA-induced peak current amplitude by measuring maximal efficacy at 0.01 to 10 uM at -80 mV holding potential preincubated for 30 secs followed by GABA stimulation for 2 secs by manual patch assay relative to control
Assay type: cell-based
Conditions: filed as positive allosteric modulator, dose 0.01-10 µM, time 32.0 sec

| SMILES | Emax |
| --- | --- |
| C[C@@]1(O)CC[C@H]2[C@H](CC[C@@H]3[C@@H]2CC[C@]2(C)[C@@H](C(=O)Cn4nnn(-c5cccc(F)c5)c4=O)CC[C@@H]32)C1 | 602% |
| C[C@@]1(O)CC[C@H]2[C@H](CC[C@@H]3[C@@H]2CC[C@]2(C)[C@@H](C(=O)Cn4cnn(-c5cccc(F)c5)c4=O)CC[C@@H]32)C1 | 440% |
| COc1cccc(-n2ncn(CC(=O)[C@H]3CC[C@H]4[C@@H]5CC[C@@H]6C[C@](C)(O)CC[C@@H]6[C@H]5CC[C@]34C)c2=O)c1 | 570% |

Test system: not listed separately
Test: Drug concentration in Sprague-Dawley rat brain at 24.4 micromol/kg, IG measured after 0.5 hrs by LC-MS/MS analysis
Assay type: ADME, tissue-based
Conditions: in vivo, po, dose 24.4 µmol/kg

| SMILES | Ct |
| --- | --- |
| C[C@@]1(O)CC[C@H]2[C@H](CC[C@@H]3[C@@H]2CC[C@]2(C)[C@@H](C(=O)Cn4nnn(-c5cccc(F)c5)c4=O)CC[C@@H]32)C1 | 948 nmol/kg |
| C[C@@]1(O)CC[C@H]2[C@H](CC[C@@H]3[C@@H]2CC[C@]2(C)[C@@H](C(=O)Cn4cnn(-c5cccc(F)c5)c4=O)CC[C@@H]32)C1 | 1708 nmol/kg |

Test system: not listed separately
Test: Drug concentration in Sprague-Dawley rat brain at 24.4 micromol/kg, IG measured after 2 hrs by LC-MS/MS analysis
Assay type: ADME, tissue-based
Conditions: in vivo, po, BLD = below limit of detection, dose 24.4 µmol/kg

| SMILES | Ct |
| --- | --- |
| C[C@@]1(O)CC[C@H]2[C@H](CC[C@@H]3[C@@H]2CC[C@]2(C)[C@@H](C(=O)Cn4nnn(-c5cccc(F)c5)c4=O)CC[C@@H]32)C1 | Bld |

Same assay, conditions: in vivo, po, dose 24.4 µmol/kg

| SMILES | Ct |
| --- | --- |
| C[C@@]1(O)CC[C@H]2[C@H](CC[C@@H]3[C@@H]2CC[C@]2(C)[C@@H](C(=O)Cn4cnn(-c5cccc(F)c5)c4=O)CC[C@@H]32)C1 | 1530 nmol/kg |

Test system: not listed separately
Test: Drug concentration in Sprague-Dawley rat brain at 24.4 micromol/kg, IG measured after 6 hrs by LC-MS/MS analysis
Assay type: ADME, tissue-based
Conditions: in vivo, po, BLD = below limit of detection, dose 24.4 µmol/kg

| SMILES | Ct |
| --- | --- |
| C[C@@]1(O)CC[C@H]2[C@H](CC[C@@H]3[C@@H]2CC[C@]2(C)[C@@H](C(=O)Cn4nnn(-c5cccc(F)c5)c4=O)CC[C@@H]32)C1 | Bld |

Same assay, conditions: in vivo, po, dose 24.4 µmol/kg

| SMILES | Ct |
| --- | --- |
| C[C@@]1(O)CC[C@H]2[C@H](CC[C@@H]3[C@@H]2CC[C@]2(C)[C@@H](C(=O)Cn4cnn(-c5cccc(F)c5)c4=O)CC[C@@H]32)C1 | 792 nmol/kg |
